Assay results from US8299036B2, “Active agent combinations with insecticidal and acaricidal properties” (priority 2003, dated 2012).

Key:
Assay type in all cases: in vivo
[1] = tested on: Phaedon cochleariae larvae; assay: Phaedon cochleariae larvae test (cabbage leaves, dip)
Description: Phaedon cochleariae Larvae Test
(§1) To produce a suitable preparation of active compound, 1 part by weight of active compound is mixed with the stated amounts of solvent and emulsifier, and the concentrate is diluted with emulsifier-containing water to the desired concentration.
Cabbage leaves (Brassica oleracea) are treated by being dipped into the preparation of active compound of the desired concentration and are populated with larvae of the mustard beetle (Phaedon cochleariae) while the leaves are still moist.
After the desired period of time, the kill in % is determined. 100% means that all beetle larvae have been killed; 0% means that none of the beetle larvae have been killed. The kill rates determined are calculated using Colby's formula (see page 44).

[2] = tested on: Tetranychus urticae (OP-resistant); assay: Tetranychus urticae test (OP-resistant; dip application)
Description: Tetranychus urticae Test (OP-Resistant; Dip Application)
as §1
Bush beans (Phaseolus vulgaris) which are heavily infested by the greenhouse red spider mite (Tetranychus urticae) are dipped into a preparation of active compound of the desired concentration.
After the desired period of time, the kill in % is determined. 100% means that all spider mites have been killed; 0% means that none of the spider mites have been killed. The kill rates determined are calculated using Colby's formula (see page 44).

Heliothis armigera = Heliothis armigera test (cabbage leaves, dip); conditions: for Kill rate in % after 3 d, found: Table B 2; for Kill rate in % after 6 d, found: Table B 1
Description: as §1
Cabbage leaves (Brassica oleracea) are treated by being dipped into the preparation of active compound of the desired concentration and are populated with caterpillars of the cotton boll worm (Heliothis armigeia) while the leaves are still moist.
After the desired period of time, the kill in % is determined. 100% means that all caterpillars have been killed; 0% means that none of the caterpillars have been killed. The kill rates determined are calculated using Colby's formula (see page 44).

Aphis gossypii = Aphis gossypii test (cotton leaves, dip); conditions: Table A
Description: To produce a suitable preparation of active compound, 1 part by weight of active compound is mixed with the stated amount of solvent and emulsifier, and the concentrate is diluted with emulsifier-containing water to the desired concentration.
Cotton leaves (Gossypium hirsutum) which are heavily infested by the cotton aphid (Aphis gossypii) are treated by being dipped into the preparation of active compound of the desired concentration.
(§2) After the desired period of time, the kill in % is determined. 100% means that all aphids have been killed; 0% means that none of the aphids have been killed. The kill rates determined are calculated using Colby's formula (see page 44).

Myzus persicae = Myzus persicae test (cabbage leaves, dip); conditions: Table C
Description: as §1
Cabbage leaves (Brassica oleracea) which are heavily infested by the green peach aphid (Myzus persicae) are treated by being dipped into the preparation of active compound of the desired concentration.
as §2

## CCC(C)(C)C(=O)OC1=C(c2ccc(Cl)cc2Cl)C(=O)OC12CCCCC2 [Example I-2]
[1]; Table D 1, 100 ppm
  Kill rate in % after 4 d, found: 0%
[2]; Table E 1, 0.8 ppm
  Kill rate in % after 7 d, found: 0%

## spinosad [(2-17) spinosad, reference compound]
Heliothis armigera; 0.032 ppm
  Kill rate in % after 3 d, found: 0%

## Cc1cc(Cl)cc(C(=O)NC(C)C)c1NC(=O)c1cc(C(F)(F)F)nn1-c1ncccc1Cl [II-1-9]
Aphis gossypii; 4 ppm
  Kill rate in % after 1 d, found: 10%
Heliothis armigera; 0.0064 ppm
  Kill rate in % after 6 d, found: 30%
  Kill rate in % after 3 d, found: 10%
Myzus persicae; 4 ppm
  Kill rate in % after 6 d, found: 25%
[1]; Table D 1, 0.16 ppm
  Kill rate in % after 4 d, found: 0%
[1]; Table D 2, 0.16 ppm
  Kill rate in % after 4 d, found: 5%
[2]; Table E 1, 100 ppm
  Kill rate in % after 7 d, found: 0%
[2]; Table E 2, 100 ppm
  Kill rate in % after 7 d, found: 0%

## O=S1OCC2C(CO1)C1(Cl)C(Cl)=C(Cl)C2(Cl)C1(Cl)Cl (stereo not shown) [(2-20) endosulfan, endosulfan, reference compound]
Myzus persicae; 20 ppm
  Kill rate in % after 6 d, found: 15%

## CC(C)c1cc(Oc2ccccc2)cc(C(C)C)c1NC(=S)NC(C)(C)C [(2-5) diafenthiuron, diafenthiuron, reference compound]
Aphis gossypii; 20 ppm
  Kill rate in % after 1 d, found: 15%

## abamectin [(2-2) abamectin, reference compound]
Heliothis armigera; 0.16 ppm
  Kill rate in % after 6 d, found: 50%

## Cc1cc(C)c(C2=C(OC(=O)CC(C)(C)C)C3(CCCC3)OC2=O)c(C)c1 [Example I-1]
[1]; Table D 2, 100 ppm
  Kill rate in % after 4 d, found: 45%
[2]; Table E 2, 0.8 ppm
  Kill rate in % after 7 d, found: 65%
